Laboratory results taken from ChEMBL document CHEMBL1153832, “Identification and characterization of UK-201844, a novel inhibitor that interferes with human immunodeficiency virus type 1 gp160 processing” (Antimicrob Agents Chemother, 2007).
Active and inactive are the calls of the source. The calls are words filed in the database; no cut-off is given here.

Tests used:
[1] = system: Human immunodeficiency virus 1; assay: Antiviral activity against HIV1 NL4-3 transfected in HEK293 cells assessed as inhibition of viral envelope gp160 processing at 1.0 uM by Western blot; format: functional; settings: Human immunodeficiency virus 1, NL4-3, HEK293
[2] = system: Human immunodeficiency virus 1; assay: Ratio of EC50 for recombinant HIV1 NL4-3/3BCt chimeric virus to EC50 for parental HIV1 NL4-3 virus; format: functional
[3] = system: Human immunodeficiency virus 1; assay: Ratio of EC50 for recombinant HIV1 NL4-3/3BFL chimeric virus to EC50 for parental HIV1 NL4-3 virus; format: functional
[4] = system: Human immunodeficiency virus 1; assay: Antiviral activity against HIV1 NL4-3 infected in human PM1 cells assessed as inhibition of viral p24 antigen production after 5 days; format: functional, organism-based; settings: Human immunodeficiency virus 1, NL4-3, PM1, 120 h
[5] = system: Human immunodeficiency virus 1; assay: Antiviral activity against HIV1 clade-B clinical isolate up to its cytotoxic concentration; format: functional, organism-based
[6] = system: Human immunodeficiency virus 1; assay: Antiviral activity against parental HIV1 NL4-3 infected in human MT2 cells by virus production assay; format: functional, organism-based; settings: Human immunodeficiency virus 1, NL4-3, MT2
[7] = system: Human immunodeficiency virus 1; assay: Antiviral activity against HIV1 NL4-3 infected in human MT2 cells assessed as inhibition of viral p24 antigen level at 7.5 uM by Western blot; format: functional; settings: Human immunodeficiency virus 1, NL4-3, MT2
[8] = system: Human immunodeficiency virus 1; assay: Antiviral activity against recombinant HIV1 NL4-3 bearing envelope with V372E, D474N substitutions infected in human MT2 cells by virus production assay; format: functional, organism-based
[9] = system: Human immunodeficiency virus 1; assay: Antiviral activity against recombinant HIV1 NL4-3 bearing envelope with G354E, V372E substitutions infected in human MT2 cells by virus production assay; format: functional, organism-based
[10] = system: Human immunodeficiency virus 1; assay: Ratio of EC50 for recombinant HIV1 NL4-3 bearing envelope with G354E, V372E substitutions to EC50 for parental HIV1 NL4-3; format: functional
[11] = system: Human immunodeficiency virus 1; assay: Ratio of EC50 for recombinant HIV1 NL4-3 bearing envelope with V372E substitution to EC50 for parental HIV1 NL4-3; format: functional
[12] = system: Human immunodeficiency virus 1; assay: Antiviral activity against HIV1 NL4-3 transfected in HEK293 cells assessed as inhibition of infectious virus production at 15 uM; format: functional; parameters: scale not given: the % may be the effect or the level left
[13] = system: Human immunodeficiency virus 1; assay: Ratio of EC50 for recombinant HIV1 NL4-3 bearing envelope with S162N, N302Y substitutions to EC50 for parental HIV1 NL4-3; format: functional
[14] = system: Human immunodeficiency virus 1; assay: Antiviral activity against HIV1 NL4-3 infected in human MT2 cells assessed as inhibition of viral p24 antigen level at 15 uM by Western blot; format: functional; settings: Human immunodeficiency virus 1, NL4-3, MT2
[15] = Cytotoxicity against human PM1 cells after 6 days by XTT assay; format: cell-based
[16] = system: Human immunodeficiency virus 1; assay: Antiviral activity against recombinant HIV1 NL4/3BFL chimeric virus infected in human MT2 cells assessed as inhibition of virus-induced CPE; format: functional, organism-based; settings: Human immunodeficiency virus 1, NL4/3BFL
[17] = system: Human immunodeficiency virus 1; assay: Antiviral activity against HIV1 3B infected in human MT2 cells assessed as inhibition of virus-induced cytopathic effect after 6 days by XTT assay; format: functional, organism-based; settings: Human immunodeficiency virus 1, 3B, MT2, 144 h
[18] = system: Human immunodeficiency virus 1; assay: Antiviral activity against recombinant HIV1 NL4-3 bearing envelope with S162N, N302Y substitutions infected in human MT2 cells by virus production assay; format: functional, organism-based
[19] = system: Human immunodeficiency virus 1; assay: Antiviral activity against HIV1 NL4/3BFL chimeric virus infected in human MT2 cells assessed as inhibition of viral p24 antigen level at 2 uM by Western blot; format: functional; settings: Human immunodeficiency virus 1, NL4/3BFL
[20] = system: Human immunodeficiency virus 1; assay: Antiviral activity against HIV1 NL4-3 infected in human 174XCEM T-cells; format: functional, organism-based
[21] = Therapeutic index, ratio of CC50 for human PM1 cells to EC50 for HIV1 NL4-3; format: cell-based; settings: read-out: TI
[22] = system: Human immunodeficiency virus 1; assay: Ratio of EC50 for recombinant HIV1 NL4-3/3B5'Env chimeric virus to EC50 for parental HIV1 NL4-3 virus; format: functional
[23] = Therapeutic index, ratio of CC50 for human MT2 cells to EC50 for HIV1 Ba-L; format: cell-based; settings: read-out: TI
[24] = system: Human immunodeficiency virus 1; assay: Antiviral activity against recombinant HIV1 NL4-3 bearing envelope with G354E, V372E, D474N substitutions infected in human MT2 cells by virus production assay; format: functional, organism-based
[25] = system: Human immunodeficiency virus 1; assay: Antiviral activity against recombinant HIV1 NL4/3B5'Env chimeric virus infected in human MT2 cells assessed as inhibition of virus-induced CPE; format: functional, organism-based; settings: Human immunodeficiency virus 1, NL4/3B5'Env
[26] = system: Human immunodeficiency virus 1; assay: Antiviral activity against HIV1 bearing VSV envelope infected in human HeLa CD4 cells coexpressing LTR/beta-Gal gene assessed as reduction in virus-induced beta-galactosidase reporter gene activity after 72 hrs by single-cycle infection assay; format: functional, organism-based; settings: Human immunodeficiency virus 1, HeLa
[27] = system: Human immunodeficiency virus 1; assay: Antiviral activity against HIV1 bearing HIV1 NL4-3 envelope assessed as reduction in viral envelope-mediated membrane fusion by cell-based fusion assay; format: functional, organism-based
[28] = system: Human immunodeficiency virus 1; assay: Antiviral activity against HIV1 bearing HIV1 NL4-3 envelope infected in human HeLa CD4 cells coexpressing LTR/beta-Gal gene assessed as reduction in virus-induced beta-galactosidase reporter gene activity after 72 hrs by single-cycle infection assay; format: functional, organism-based; settings: Human immunodeficiency virus 1, HeLa
[29] = system: Human immunodeficiency virus 1; assay: Antiviral activity against HIV1 NL4-3 infected in human CEM-SS cells; format: functional, organism-based
[30] = system: Human immunodeficiency virus 1; assay: Ratio of EC50 for recombinant HIV1 NL4-3/3BNt chimeric virus to EC50 for parental HIV1 NL4-3 virus; format: functional

NC(=O)C(c1ccccc1)(c1ccccc1)[C@H]1CCCN(CCc2ccc3c(c2)CCO3)C1
inhibition at 1 µM [1]: 44%
fold change (FC) [2]: 4
fold change (FC) [3]: >25
EC50 [4]: 2.7 µM
Activity [5]: inactive
EC50 [6]: 1.03 µM
inhibition at 7.5 µM [7]: 99%
EC50 [8]: > 32 µM
EC50 [9]: 2.2 µM
fold change (FC) [10]: 2.1
fold change (FC) [11]: 0.9
Activity [12]: 100%
fold change (FC) [13]: 8.3
inhibition at 15 µM [14]: 100%
CC50 at 144 h [15]: 47 µM
EC50 [16]: > 32 µM
EC50 [17]: 32 µM
EC50 [18]: 8.6 µM
inhibition at 2 µM [19]: 2%
EC50 [20]: Active
selectivity ratio [21]: 17
fold change (FC) [22]: >25
selectivity ratio [23]: 2
EC50 [24]: > 32 µM
EC50 [25]: > 32 µM
EC50 [26]: > 32 µM
Activity [27]: inactive
EC50 [28]: > 32 µM
EC50 [29]: Active
fold change (FC) [30]: 1
